Series [1] is described as follows: Oral bioavailability in human. Type of series: ADME, organism-based. Particulars: in vivo.
A short description of series [2]: Inhibition of NLRP3 inflammasome activation in LPS-induced mouse RAW264.7 cells assessed as reduction of NLRP3 expression by Western blot analysis. It is filed as cell-based. (In general: Immunoblotting shows a protein as a band on a membrane.)
Series [3] in a line: Inhibition of NLRP3 inflammasome in mouse J774.A1 cells assessed as inhibition of IL-1 beta secretion. Type of series: cell-based.
Series [4] is described as follows: Antiinflammatory activity against LPS-stimulated human MDM cells assessed as inhibition of LPS-induced IL-1beta level at 20 uM incubated for 24 hrs by ELISA relative to control. It is filed as functional. Set-up: scale not given: the % may be the effect or the level left.
The nature of series [5]: Inhibition of NLRP3 inflammasome activation in LPS-induced mouse RAW264.7 cells assessed as downregulation of NLRP3 expression. Type of series: cell-based.
Series [6] deals with RAW264.7. Briefly: Antiinflammatory activity against mouse RAW264.7 cells assessed as decrease in LPS-induced IL-1beta level at 20 uM incubated for 24 hrs by ELISA relative to control. It is filed as functional. On the set-up: scale not given: the % may be the effect or the level left. (In general: ELISA stands for enzyme-linked immunosorbent assay.)
Series [7] is described as follows: Cytotoxicity against human PBMC cells assessed as reduction in cell viability by CellTiter Glo assay. It is filed as functional, cell-based. A general note: Cellular ATP, detected with luciferase, serves as a proxy for viable cell number.

Here are results for ten molecules from ChEMBL document CHEMBL6092130, “Recent advances in the treatment of gout with NLRP3 inflammasome inhibitors” (Bioorg Med Chem, 2024).

A word on the bioavailability: it is the share of a dose that reaches the circulation, judged against a reference dose that is usually intravenous. As usually defined, the IC50 is the point on the concentration scale where inhibition reaches its midpoint.

`CC(C)C[C@H](NC(=O)[C@H](Cc1ccccc1)NC(=O)c1c(F)cccc1F)B(O)O` registered a bioavailability in series [1] of 48.1%. For `COc1ccc(Cl)cc1C(=O)NCCc1ccc(S(=O)(=O)NC(=O)NC2CCCCC2)cc1` [GLYBURIDE], the IC50 in series [2] was found to be 13 µM.

Turning to `COc1ccc(Cl)cc1C(=O)NCCc1ccc(S(=O)(=O)NO)cc1`, the IC50 in series [3] was determined as 8.45 µM. Regarding `CS(=O)(=O)CCC#N`, the Activity in series [4] came out at 60%. For the molecule `COc1ccc(CNS(=O)(=O)c2ccc(CCNC(=O)c3cc(Cl)ccc3OC)cc2)cc1`, the IC50 in series [5] turned out to be 450 nM.

Consider `CCCCN(CCCC)S(=O)(=O)c1ccc(CCNC(=O)c2cc(Cl)ccc2OC)cc1`, for which, in series [5], the IC50 was 550 nM.

Take `CC(C)C[C@H](NC(=O)CNC(=O)c1cc(Cl)ccc1Cl)B(O)O` [IXAZOMIB]: in series [6], the Activity is 77%.

`CC(C)(O)c1coc(S(=O)(=O)NC(=O)Nc2c3c(cc4c2CCC4)CCC3)c1`: the IC50 in series [5] is 7.5 nM. For the molecule `C=C1C(=O)[C@]23[C@H](O)[C@H]1CC[C@H]2[C@@]12CO[C@]3(O)[C@@H](O)[C@@H]1C(C)(C)CC[C@@H]2O` [ORIDONIN], the IC50 in series [7] came to 5.18 µM. `CNS(=O)(=O)c1ccc(CCNC(=O)c2ccccc2)cc1`: the IC50 in series [5] worked out at 147 nM.
